Measured values as given in patent publication US20250136578A1 (Kolm Therapeutics Inc., priority 2023, published 2025).
Like-named read-outs stand apart in the source and are kept apart here.

How the values were obtained:
VCaP cells = assay: VCaP growth inhibition assay (CTG); format: cell-based; settings: Homo sapiens, 216 h, 30 pM R1881, 9 days
Procedure, shortened: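 Growth was measured by CTG luminescence after a 9-day exposure of VCaP cells to compound (final 10 fM–100 nM, fivefold steps) in the presence of 30 pM final R1881, in phenol red-free DMEM/5% CSS. IC50 values were derived by nonlinear 4-parameter regression of RLU against concentration.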

AR / CBP ternary complex = AR / CBP ternary complex (Homo sapiens, UniProt P10275+Q92793); assay: Ternary complex formation assay (sandwich ELISA, AR capture, CBP antibody detection) in VCaP cell lysates; format: cell-based
Chain of AR / CBP ternary complex (P10275 whole entry): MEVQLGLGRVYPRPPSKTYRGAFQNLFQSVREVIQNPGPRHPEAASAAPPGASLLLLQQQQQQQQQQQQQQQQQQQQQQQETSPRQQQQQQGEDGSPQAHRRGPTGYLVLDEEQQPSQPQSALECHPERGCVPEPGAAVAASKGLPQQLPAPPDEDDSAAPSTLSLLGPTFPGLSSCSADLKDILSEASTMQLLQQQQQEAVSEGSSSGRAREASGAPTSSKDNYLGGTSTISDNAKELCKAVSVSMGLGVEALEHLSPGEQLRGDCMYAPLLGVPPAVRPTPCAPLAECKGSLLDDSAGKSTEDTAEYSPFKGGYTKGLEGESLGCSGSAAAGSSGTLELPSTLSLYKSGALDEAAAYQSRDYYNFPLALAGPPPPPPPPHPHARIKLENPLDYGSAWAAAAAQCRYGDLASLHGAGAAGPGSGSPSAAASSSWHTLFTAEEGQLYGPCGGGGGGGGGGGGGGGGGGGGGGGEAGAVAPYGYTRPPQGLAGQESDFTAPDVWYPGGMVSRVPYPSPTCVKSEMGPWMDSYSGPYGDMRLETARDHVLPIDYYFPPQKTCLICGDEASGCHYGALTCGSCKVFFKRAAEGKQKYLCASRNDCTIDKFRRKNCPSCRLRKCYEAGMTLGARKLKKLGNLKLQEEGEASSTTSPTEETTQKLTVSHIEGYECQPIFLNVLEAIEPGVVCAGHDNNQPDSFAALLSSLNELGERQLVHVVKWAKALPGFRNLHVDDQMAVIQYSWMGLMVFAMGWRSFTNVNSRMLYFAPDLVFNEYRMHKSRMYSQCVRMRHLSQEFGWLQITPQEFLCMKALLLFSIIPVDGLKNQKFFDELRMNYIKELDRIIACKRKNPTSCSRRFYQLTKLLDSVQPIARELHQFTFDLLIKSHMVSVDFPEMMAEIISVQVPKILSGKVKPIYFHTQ
Chain of AR / CBP ternary complex (Q92793 2-2442): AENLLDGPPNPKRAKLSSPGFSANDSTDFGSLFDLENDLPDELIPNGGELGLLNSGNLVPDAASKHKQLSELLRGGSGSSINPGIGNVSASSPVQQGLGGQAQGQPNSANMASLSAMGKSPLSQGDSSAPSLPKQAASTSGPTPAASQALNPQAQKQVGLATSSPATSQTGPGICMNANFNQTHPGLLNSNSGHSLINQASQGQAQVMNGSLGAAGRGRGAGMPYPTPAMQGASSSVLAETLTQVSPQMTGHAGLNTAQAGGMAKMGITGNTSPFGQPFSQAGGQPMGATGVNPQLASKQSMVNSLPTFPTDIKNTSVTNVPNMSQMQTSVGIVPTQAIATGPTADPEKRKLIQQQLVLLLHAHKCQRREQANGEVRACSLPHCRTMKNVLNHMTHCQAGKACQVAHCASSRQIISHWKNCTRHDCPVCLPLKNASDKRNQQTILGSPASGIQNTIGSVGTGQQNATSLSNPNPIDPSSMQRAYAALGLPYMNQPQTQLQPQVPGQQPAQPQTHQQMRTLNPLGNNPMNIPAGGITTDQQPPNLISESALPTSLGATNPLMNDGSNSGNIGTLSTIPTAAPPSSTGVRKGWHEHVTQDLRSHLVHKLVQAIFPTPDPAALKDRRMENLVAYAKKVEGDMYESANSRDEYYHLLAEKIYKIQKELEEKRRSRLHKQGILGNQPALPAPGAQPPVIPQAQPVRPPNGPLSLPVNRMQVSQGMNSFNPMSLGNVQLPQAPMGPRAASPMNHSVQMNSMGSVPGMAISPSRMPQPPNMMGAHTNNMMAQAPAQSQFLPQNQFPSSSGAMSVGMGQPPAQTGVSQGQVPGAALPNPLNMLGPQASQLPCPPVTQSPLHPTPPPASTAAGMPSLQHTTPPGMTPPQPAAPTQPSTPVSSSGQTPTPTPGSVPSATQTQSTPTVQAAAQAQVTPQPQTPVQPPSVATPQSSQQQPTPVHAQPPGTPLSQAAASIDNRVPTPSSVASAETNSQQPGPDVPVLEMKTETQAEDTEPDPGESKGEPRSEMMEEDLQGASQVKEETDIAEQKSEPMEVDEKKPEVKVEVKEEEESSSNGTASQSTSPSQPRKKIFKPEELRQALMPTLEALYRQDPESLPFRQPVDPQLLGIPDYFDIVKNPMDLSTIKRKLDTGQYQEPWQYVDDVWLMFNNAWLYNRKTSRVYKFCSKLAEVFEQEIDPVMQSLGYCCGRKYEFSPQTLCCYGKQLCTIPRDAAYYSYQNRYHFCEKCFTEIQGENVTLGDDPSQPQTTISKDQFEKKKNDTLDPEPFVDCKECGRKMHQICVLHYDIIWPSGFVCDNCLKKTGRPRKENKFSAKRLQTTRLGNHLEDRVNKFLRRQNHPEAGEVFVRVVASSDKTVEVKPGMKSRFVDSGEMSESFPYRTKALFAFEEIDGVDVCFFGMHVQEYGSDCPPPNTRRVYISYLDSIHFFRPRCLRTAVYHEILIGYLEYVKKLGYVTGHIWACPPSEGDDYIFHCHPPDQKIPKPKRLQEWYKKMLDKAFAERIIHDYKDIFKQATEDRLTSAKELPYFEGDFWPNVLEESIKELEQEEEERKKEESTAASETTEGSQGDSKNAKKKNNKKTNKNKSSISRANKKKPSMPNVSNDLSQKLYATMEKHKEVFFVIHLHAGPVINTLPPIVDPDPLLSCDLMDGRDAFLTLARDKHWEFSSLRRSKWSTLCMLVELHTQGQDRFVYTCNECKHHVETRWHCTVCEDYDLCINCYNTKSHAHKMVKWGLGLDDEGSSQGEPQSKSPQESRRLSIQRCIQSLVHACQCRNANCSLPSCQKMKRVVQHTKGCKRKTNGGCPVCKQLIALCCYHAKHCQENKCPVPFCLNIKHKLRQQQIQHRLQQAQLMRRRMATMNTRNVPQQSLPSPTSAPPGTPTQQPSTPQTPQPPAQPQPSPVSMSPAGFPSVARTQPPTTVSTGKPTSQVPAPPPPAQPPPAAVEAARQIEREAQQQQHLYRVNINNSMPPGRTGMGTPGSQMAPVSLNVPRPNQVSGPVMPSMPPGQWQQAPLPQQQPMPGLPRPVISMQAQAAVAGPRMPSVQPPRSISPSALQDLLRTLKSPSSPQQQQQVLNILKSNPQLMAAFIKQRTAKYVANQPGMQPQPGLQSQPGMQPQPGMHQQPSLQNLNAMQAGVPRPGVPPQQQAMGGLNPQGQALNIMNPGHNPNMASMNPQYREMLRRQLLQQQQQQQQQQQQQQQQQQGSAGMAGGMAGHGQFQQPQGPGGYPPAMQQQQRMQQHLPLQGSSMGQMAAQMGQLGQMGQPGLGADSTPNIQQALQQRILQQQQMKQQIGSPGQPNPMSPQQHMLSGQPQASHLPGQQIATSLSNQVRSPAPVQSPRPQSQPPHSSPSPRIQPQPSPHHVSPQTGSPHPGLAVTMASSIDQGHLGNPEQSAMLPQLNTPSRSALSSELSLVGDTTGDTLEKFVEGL
Procedure, shortened: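 Sandwich ELISA: plates were coated with anti-AR antibody (AR441) and given lysates of VCaP cells treated 1.5 h with bifunctional compound in charcoal-stripped serum. Co-captured CBP or p300 was probed with rabbit mAbs and HRP secondary. Chemifluorescent signal (ex 570/em 585) was read at 0, 5 and 15 min.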

[1] = treated 1.5 hours, rabbit CBP or p300 antibody detection, average, read-out: Average Ternary Complex
[2] = read-out: Average Ternary Complex, treated 1.5 hours, rabbit CBP or p300 antibody detection

SMILES | IC50 (VCaP cells) [nM] | EC50 (AR / CBP ternary complex; [1]) [nM] | EC50 (AR / CBP ternary complex; [2]) [nM]
CC(=O)N1CCc2c(c(-c3cccc4cc(-c5cnn(CC6CC7(C6)CN(c6ccc(C(=O)N[C@H]8CC[C@H](Oc9ccc(C#N)c(Cl)c9)CC8)nn6)C7)c5)ncc34)nn2C2CCOCC2)C1 [Compound 46, 6-[6-[[4-[8-(5-acetyl-1-tetrahydropyran-4-yl-6,7-dihydro-4H-pyrazolo[4,3-c]pyridin-3-yl)-3-isoquinolyl]pyrazol-1-yl]methyl]-2-azaspiro[3.3]heptan-2-yl]-N-[4-(3-chloro-4-cyano-phenoxy)cyclohexyl]pyridazine-3-carboxamide] | 0.1 to 1 | < 1 | –
CC(=O)N1CCc2c(c(-c3cccc4cc(-c5cnn(CC6CC7(C6)CN(c6ccc(C(=O)N[C@H]8CC[C@H](Oc9ccc(C#N)c(Cl)c9)CC8)nn6)C7)c5)ncc34)nn2C)C1 [Compound 47, 6-[6-[[4-[8-(5-acetyl-1-methyl-6,7-dihydro-4H-pyrazolo[4,3-c]pyridin-3-yl)-3-isoquinolyl]pyrazol-1-yl]methyl]-2-azaspiro[3.3]heptan-2-yl]-N-[4-(3-chloro-4-cyano-phenoxy)cyclohexyl]pyridazine-3-carboxamide] | 0.1 to 1 | – | 1 to 10
CC(=O)N1CCc2c(c(-c3cccc4cc(-c5ccc(CCC6CC7(C6)CN(c6ccc(C(=O)N[C@H]8CC[C@H](Oc9ccc(C#N)c(Cl)c9)CC8)nn6)C7)nc5)ncc34)nn2C2CCOCC2)C1 [Compound 48] | ≤ 0.1 | – | < 1
CC(=O)N1CCc2c(c(-c3cccc4cc(-c5cnn(CCC6CC7(C6)CN(c6ccc(C(=O)N[C@H]8CC[C@H](Oc9ccc(C#N)c(Cl)c9)CC8)nn6)C7)c5)ncc34)nn2C2CCOCC2)C1 [Compound 49, 6-[6-[2-[4-[8-(5-acetyl-1-tetrahydropyran-4-yl-6,7-dihydro-4H-pyrazolo[4,3-c]pyridin-3-yl)-3-isoquinolyl]pyrazol-1-yl]ethyl]-2-azaspiro[3.3]heptan-2-yl]-N-[4-(3-chloro-4-cyano-phenoxy)cyclohexyl]pyridazine3-carboxamide] | 0.1 to 1 | < 1 | –
CC(=O)N1CCc2c(c(-c3cccc4cc(-c5ccc(CCC6CC7(C6)CN(c6ccc(C(=O)N[C@H]8CC[C@H](Oc9ccc(C#N)c(Cl)c9)CC8)nn6)C7)nc5)ncc34)nn2C)C1 [Compound 51, 6-[6-[2-[5-[8-(5-acetyl-1-methyl-6,7-dihydro-4H-pyrazolo[4,3-c]pyridin-3-yl)-3-isoquinolyl]-2-pyridyl]ethyl]-2-azaspiro[3.3]heptan-2-yl]-N-[4-(3-chloro-4-cyano-phenoxy)cyclohexyl]pyridazine-3-carboxamide] | 0.1 to 1 | < 1 | –
Cn1c(=O)n(C)c2cc(-c3cccc4cc(-c5ccc(CCC6CCN(c7ccc(C(=O)N[C@H]8CC[C@H](Oc9ccc(C#N)c(Cl)c9)CC8)nn7)CC6)nc5)ncc34)ccc21 [Compound 52, N-[4-(3-chloro-4-cyano-phenoxy)cyclohexyl]-6-[4-[2-[5-[8-(1,3-dimethyl-2-oxo-benzimidazol-5-yl)-3-isoquinolyl]-2-pyridyl]ethyl]-1-piperidyl]pyridazine-3-carboxamide] | > 100 | 1 to 10 | –
Cn1c(=O)n(C)c2cc(N3CCCc4cc(-c5ccc(CCC6CCN(c7ccc(C(=O)N[C@H]8CC[C@H](Oc9ccc(C#N)c(Cl)c9)CC8)nn7)CC6)nc5)c(C(F)F)cc43)ccc21 [Compound 53, N-[4-(3-chloro-4-cyano-phenoxy)cyclohexyl]-6-[4-[2-[5-[7-(difluoromethyl)-1-(1,3-dimethyl-2-oxo-benzimidazol-5-yl)-3,4-dihydro-2H-quinolin-6-yl]-2-pyridyl]ethyl]-1-piperidyl] pyridazine-3-carboxamide] | > 100 | – | < 1
Cn1c(=O)n(C)c2cc(N3CCCc4cc(-c5ccc(CCC6CCN(c7ccc(C(=O)N[C@H]8CC[C@H](Oc9ccc(C#N)c(Cl)c9)CC8)nn7)CC6)nc5)ncc43)ccc21 [Compound 54, N-[4-(3-chloro-4-cyano-phenoxy)cyclohexyl]-6-[4-[2-[5-[1-(1,3-dimethyl-2-oxo-benzimidazol-5-yl)-3,4-dihydro-2H-1,7-naphthyridin-6-yl]-2-pyridyl]ethyl]-1-piperidyl] pyridazine-3-carboxamide] | 0.1 to 1 | 1 to 10 | –
Cn1c(=O)sc2ccc(-c3cccc4cc(-c5ccc(CCC6CCN(c7ccc(C(=O)N[C@H]8CC[C@H](Oc9ccc(C#N)c(Cl)c9)CC8)nn7)CC6)nc5)ncc34)cc21 [Compound 55, N-[4-(3-chloro-4-cyano-phenoxy)cyclohexyl]-6-[4-[2-[5-[8-(3-methyl-2-oxo-1,3-benzothiazol-5-yl)-3-isoquinolyl]-2-pyridyl]ethyl]-1-piperidyl]pyridazine-3-carboxamide] | > 100 | < 1 | –

More lines, main results first:

IC50 (VCaP cells) [nM] | EC50 (AR / CBP ternary complex; [1]) [nM] | SMILES | EC50 (AR / CBP ternary complex; [2]) [nM]
0.1 to 1 | 1 to 10 | CC(=O)N1CCc2c(c(N3CCCc4ccc(C(F)F)cc43)nn2C2CC3(C2)CN(CC2CC4(C2)CN(c2ccc(C(=O)N[C@H]5CC[C@H](Oc6ccc(C#N)c(Cl)c6)CC5)nn2)C4)C3)C1 (some centres unmarked) [Compound 43, -[6-[[6-[5-acetyl-3-[7-(difluoromethyl)-3,4-dihydro-2H-quinolin-1-yl]-6,7-dihydro-4H-pyrazolo[4,3-c]pyridin-1-yl]-2-azaspiro [3.3]heptan-2-yl]methyl]-2-azaspiro [3.3]heptan-2-yl]-N-[4-(3-chloro-4-cyano-phenoxy)cyclohexyl] pyridazine-3-carboxamide] | –
0.1 to 1 | < 1 | CC(=O)N1CCc2c(c(N3CCCc4cc(C#N)ccc43)nn2C2CC3(C2)CN(C(=O)C2CC4(C2)CN(c2ccc(C(=O)N[C@H]5CC[C@H](Oc6ccc(C#N)c(Cl)c6)CC5)nn2)C4)C3)C1 (some centres unmarked) [Compound 44, 6-[6-[6-[5-acetyl-3-(6-cyano-3,4-dihydro-2H-quinolin-1-yl)-6,7-dihydro-4H-pyrazolo[4,3-c]pyridin-1-yl]-2-azaspiro [3.3]heptane-2-carbonyl]-2-azaspiro[3.3]heptan-2-yl]-N-[4-(3-chloro-4-cyano-phenoxy)cyclohexyl] pyridazine-3-carboxamide] | –
0.1 to 1 | < 1 | CC(=O)N1CCc2c(c(N3CCCc4cc(C#N)ccc43)nn2C2CC3(C2)CN(CC2CC4(C2)CN(c2ccc(C(=O)N[C@H]5CC[C@H](Oc6ccc(C#N)c(Cl)c6)CC5)nn2)C4)C3)C1 (some centres unmarked) [Compound 45, 6-[6-[[6-[5-acetyl-3-(6-cyano-3,4-dihydro-2H-quinolin-1-yl)-6,7-dihydro-4H-pyrazolo[4,3-c]pyridin-1-yl]-2-azaspiro [3.3]heptan-2-yl]methyl]-2-azaspiro[3.3]heptan-2-yl]-N-[4-(3-chloro-4-cyano-phenoxy)cyclohexyl] pyridazine-3-carboxamide] | –
≤ 0.1 | < 1 | CC(=O)N1CCc2c(c(-c3cccc4cc(-c5cnn(CCC6CC7(C6)CN(c6ccc(C(=O)N[C@H]8CC[C@H](Oc9ccc(C#N)c(Cl)c9)CC8)nn6)C7)c5)ncc34)nn2C)C1 [Compound 50, 6-[6-[2-[4-[8-(5-acetyl-1-methyl-6,7-dihydro-4H-pyrazolo[4,3-c]pyridin-3-yl)-3-isoquinolyl]pyrazol-1-yl]ethyl]-2-azaspiro[3.3]heptan-2-yl]-N-[4-(3-chloro-4-cyano-phenoxy)cyclohexyl]pyridazine-3-carboxamide] | –
